# Measured values published in patent US6737383B1, “Herbicidal oxadiazolidines” (priority 1999, dated 2004).
# Legend:
# velvetleaf = test: Test A velvetleaf; assay type: in vivo, Abutilon theophrasti; conditions: 0 to 10 scale where 0 is no effect and 10 is complete control
# Outline: (§1)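 Injury scored visually after about eleven greenhouse days against untreated plants, 0 = no effect, 10 = complete control. Compounds, formulated in surfactant-containing non-phytotoxic solvent, were applied as preemergence soil drench to sandy loam plantings and as postemergence runoff spray at the 1–2 leaf stage.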
# crabgrass = test: Test A crabgrass; assay type: in vivo, Digitaria spp.; conditions: 0 to 10 scale where 0 is no effect and 10 is complete control
# Outline: as §1
# barnyardgrass = test: Test A barnyardgrass; assay type: in vivo, Echinochloa crus-galli; conditions: 0 to 10 scale where 0 is no effect and 10 is complete control
# Outline: as §1
# morningglory = test: Test A morningglory; assay type: in vivo, Ipomoea spp.; conditions: 0 to 10 scale where 0 is no effect and 10 is complete control
# Outline: as §1
# large crabgrass = test: Test D large crabgrass; assay type: in vivo, Digitaria sanguinalis; conditions: Preemergence, 0 to 100 scale
# Outline: (§2)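 Weed seeds planted in sandy loam; species kept apart in individual pots or compartments. Preemergence tests: treatment to soil surface within one day. Greenhouse growth, then visual injury scoring at 14–21 days (0–100).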
# common ragweed = test: Test D common ragweed; assay type: in vivo, Ambrosia elatior; conditions: Preemergence, 0 to 100 scale
# Text: (§3) Seeds, tubers, or plant parts of Alexandergrass (Brachiaria plantaginea), bermuda-grass (Cynodon dactylon), common pursiane (Portulaca oleracea), common ragweed (Ambrosia elatior), common groundsel (Senecio vulgaris), dallisgrass (Paspalum dilatatum), goosegrass (Eleusine indica), guineagrass (Panicum maximum), itchgrass (Rottboellia exaltata), Johnson grass (Sorghum halepense), large crabgrass (Digitaria sanguinalis), pitted morningglory (Ipomoea lacunosa), purple nutsedge (Cyperus rotundus), sandbur (Cenchrus echinatus), sourgrass (Trichachne insularis), Spanishneedles (Bidens bipinnata), surinam grass (Brachiaria decumbens) and tall mallow (Malva sylvestris) were planted into greenhouse pots of flats containing greenhouse planting medium. Plant species were grown in separate pots or individual compartments. Preemergence applications were made within one day of planting the seed or plant part.
# (§4) Test chemicals were formulated in a non-phytotoxic solvent mixture which included a surfactant and applied preemergence to the surface of the pot containing seeds in a sandy loam soil. Untreated control pots and treated pots were placed in the greenhouse for growth and visually evaluated for injury 14 to 21 days after herbicide application. Plant response ratings, summarized in Table C, are based on a 0 to 100 scale where 0 is no injury and 100 is complete control. A dash (−) response means no test result.
# Spanishneedles = test: Test D Spanishneedles; assay type: in vivo, Bidens bipinnata; conditions: Preemergence, 0 to 100 scale
# Outline: as §2
# itchgrass = test: Test D itchgrass; assay type: in vivo, Rottboellia exaltata; conditions: Preemergence, 0 to 100 scale
# Text: as §3, §4
# bermuda-grass = test: Test D bermudagrass; assay type: in vivo, Cynodon dactylon; conditions: Preemergence, 0 to 100 scale
# Text: as §3, §4
# guineagrass = test: Test D guineagrass; assay type: in vivo, Panicum maximum; conditions: Preemergence, 0 to 100 scale
# Outline: as §2
# pitted morningglory = test: Test D pitted morningglory; assay type: in vivo, Ipomoea lacunosa; conditions: Preemergence, 0 to 100 scale
# Outline: as §2
# Alexandergrass = test: Test D Alexandergrass; assay type: in vivo, Brachiaria plantaginea; conditions: Preemergence, 0 to 100 scale
# Outline: as §2
# dallisgrass = test: Test D dallisgrass; assay type: in vivo, Paspalum dilatatum; conditions: Preemergence, 0 to 100 scale
# Text: as §3, §4
# tall mallow = test: Test D tall mallow; assay type: in vivo, Malva sylvestris; conditions: Preemergence, 0 to 100 scale
# Outline: as §2
# [1] = Rate 32 g/ha, 0 no injury, 100 complete control
# [2] = Rate 64 g/ha, 0 no injury, 100 complete control
# [3] = Rate 125 g/ha, 0 no injury, 100 complete control
# [4] = Rate 16 g/ha, 0 no injury, 100 complete control
smiles,measurement,setting,value
CCN(CC)C(=O)n1oc(=O)n(-c2ccc(F)cc2)c1=O [Compound 3],"Plant response rating, Velvetleaf","velvetleaf; Postemergence, Rate 1000 g/ha",0
same,"Plant response rating, Velvetleaf","velvetleaf; Pre-emergence, Rate 2000 g/ha",0
same,"Plant response rating, Crabgrass","crabgrass; Postemergence, Rate 1000 g/ha",0
same,"Plant response rating, Crabgrass","crabgrass; Pre-emergence, Rate 2000 g/ha",3
same,"Plant response rating, Barnyardgrass","barnyardgrass; Postemergence, Rate 1000 g/ha",6
same,"Plant response rating, Barnyardgrass","barnyardgrass; Pre-emergence, Rate 2000 g/ha",9
same,"Plant response rating, Morningglory","morningglory; Postemergence, Rate 1000 g/ha",0
same,"Plant response rating, Morningglory","morningglory; Pre-emergence, Rate 2000 g/ha",0
Cc1ccc(-n2c(=O)on(C(=O)N(c3ccc(F)cc3F)C(C)C)c2=O)c(C)c1 [Compound 24],"Plant response rating, Large crabgrass",large crabgrass; [1],70
same,"Plant response rating, Large crabgrass",large crabgrass; [2],70
same,"Plant response rating, Large crabgrass",large crabgrass; [3],100
same,"Plant response rating, Large crabgrass",large crabgrass; Rate 250 g/ha,100
same,"Plant response rating, Large crabgrass",large crabgrass; Rate 500 g/ha,100
same,"Plant response rating, C. ragweed",common ragweed; [1],0
same,"Plant response rating, C. ragweed",common ragweed; [2],0
same,"Plant response rating, C. ragweed",common ragweed; [3],0
same,"Plant response rating, C. ragweed",common ragweed; Rate 250 g/ha,0
same,"Plant response rating, C. ragweed",common ragweed; Rate 500 g/ha,0
same,"Plant response rating, Spanishneedles",Spanishneedles; [1],0
same,Spanishneedles plant response rating,Spanishneedles; [2],0
same,Spanishneedles plant response rating,Spanishneedles; [3],0
same,"Plant response rating, Spanishneedles",Spanishneedles; Rate 500 g/ha,0
same,"Plant response rating, Itchgrass",itchgrass; [1],40
same,"Plant response rating, Itchgrass",itchgrass; [2],40
same,"Plant response rating, Itchgrass",itchgrass; [3],40
same,"Plant response rating, Itchgrass",itchgrass; Rate 250 g/ha,40
same,"Plant response rating, Itchgrass",itchgrass; Rate 500 g/ha,40
same,"Plant response rating, Bermudagrass",bermuda-grass; [1],75
same,"Plant response rating, Bermudagrass",bermuda-grass; [2],95
same,"Plant response rating, Bermudagrass",bermuda-grass; [3],98
same,"Plant response rating, Bermudagrass",bermuda-grass; Rate 250 g/ha,100
same,"Plant response rating, Bermudagrass",bermuda-grass; Rate 500 g/ha,100
same,"Plant response rating, Guineagrass",guineagrass; [1],60
same,"Plant response rating, Guineagrass",guineagrass; [2],75
same,"Plant response rating, Guineagrass",guineagrass; [3],90
same,"Plant response rating, Guineagrass",guineagrass; Rate 250 g/ha,98
same,"Plant response rating, Guineagrass",guineagrass; Rate 500 g/ha,100
same,"Plant response rating, P. morninglory",pitted morningglory; [1],0
same,"Plant response rating, P. morninglory",pitted morningglory; [2],0
same,"Plant response rating, P. morninglory",pitted morningglory; [3],0
same,"Plant response rating, P. morninglory",pitted morningglory; Rate 250 g/ha,0
same,"Plant response rating, P. morninglory",pitted morningglory; Rate 500 g/ha,0
same,"Plant response rating, Alexandergrass",Alexandergrass; [1],10
same,"Plant response rating, Alexandergrass",Alexandergrass; [2],10
same,"Plant response rating, Alexandergrass",Alexandergrass; [3],10
same,"Plant response rating, Alexandergrass",Alexandergrass; Rate 250 g/ha,65
same,"Plant response rating, Alexandergrass",Alexandergrass; Rate 500 g/ha,98
same,"Plant response rating, Dallisgrass",dallisgrass; [1],30
same,"Plant response rating, Dallisgrass",dallisgrass; [2],30
same,"Plant response rating, Dallisgrass",dallisgrass; [3],98
same,"Plant response rating, Dallisgrass",dallisgrass; Rate 250 g/ha,98
same,"Plant response rating, Dallisgrass",dallisgrass; Rate 500 g/ha,100
same,"Plant response rating, Tall Mallow",tall mallow; [1],0
same,Tall Mallow plant response rating,tall mallow; [2],0
same,Tall Mallow plant response rating,tall mallow; [3],0
same,"Plant response rating, Tall Mallow",tall mallow; Rate 250 g/ha,0
same,"Plant response rating, Tall Mallow",tall mallow; Rate 500 g/ha,0
CC(C)N(C(=O)n1oc(=O)n(C(C)C)c1=O)c1ccccc1 [Compound 113],"Plant response rating, Large crabgrass",large crabgrass; [4],85
same,"Plant response rating, Large crabgrass",large crabgrass; [1],100
same,"Plant response rating, Large crabgrass",large crabgrass; [2],100
same,"Plant response rating, Large crabgrass",large crabgrass; [3],100
same,"Plant response rating, C. ragweed",common ragweed; [4],0
same,"Plant response rating, C. ragweed",common ragweed; [1],0
same,"Plant response rating, C. ragweed",common ragweed; [2],0
same,"Plant response rating, C. ragweed",common ragweed; [3],0
same,"Plant response rating, Spanishneedles",Spanishneedles; [4],0
same,"Plant response rating, Spanishneedles",Spanishneedles; [1],0
same,Spanishneedles plant response rating,Spanishneedles; [2],0
same,Spanishneedles plant response rating,Spanishneedles; [3],0
same,"Plant response rating, Itchgrass",itchgrass; [4],10
same,"Plant response rating, Itchgrass",itchgrass; [1],40
same,"Plant response rating, Itchgrass",itchgrass; [2],50
same,"Plant response rating, Itchgrass",itchgrass; [3],60
same,"Plant response rating, Bermudagrass",bermuda-grass; [4],98
same,"Plant response rating, Bermudagrass",bermuda-grass; [1],100
same,"Plant response rating, Bermudagrass",bermuda-grass; [2],100
same,"Plant response rating, Bermudagrass",bermuda-grass; [3],100
same,"Plant response rating, Guineagrass",guineagrass; [4],85
same,"Plant response rating, Guineagrass",guineagrass; [1],100
same,"Plant response rating, Guineagrass",guineagrass; [2],100
same,"Plant response rating, Guineagrass",guineagrass; [3],100
same,"Plant response rating, P. morninglory",pitted morningglory; [4],10
same,"Plant response rating, P. morninglory",pitted morningglory; [1],10
same,"Plant response rating, P. morninglory",pitted morningglory; [2],10
same,"Plant response rating, P. morninglory",pitted morningglory; [3],10
same,"Plant response rating, Alexandergrass",Alexandergrass; [4],65
same,"Plant response rating, Alexandergrass",Alexandergrass; [1],85
same,"Plant response rating, Alexandergrass",Alexandergrass; [2],98
same,"Plant response rating, Alexandergrass",Alexandergrass; [3],98
same,"Plant response rating, Dallisgrass",dallisgrass; [4],0
same,"Plant response rating, Dallisgrass",dallisgrass; [1],95
same,"Plant response rating, Dallisgrass",dallisgrass; [2],100
same,"Plant response rating, Dallisgrass",dallisgrass; [3],100
same,"Plant response rating, Tall Mallow",tall mallow; [4],0
same,"Plant response rating, Tall Mallow",tall mallow; [1],0
same,Tall Mallow plant response rating,tall mallow; [2],0
same,Tall Mallow plant response rating,tall mallow; [3],30
C=CCn1c(=O)on(C(=O)N(c2ccc(F)cc2F)C2CC2)c1=O [Compound 127],"Plant response rating, Velvetleaf","velvetleaf; Postemergence, Rate 1000 g/ha",0
same,"Plant response rating, Velvetleaf","velvetleaf; Pre-emergence, Rate 2000 g/ha",0
same,"Plant response rating, Crabgrass","crabgrass; Postemergence, Rate 1000 g/ha",7
same,"Plant response rating, Crabgrass","crabgrass; Pre-emergence, Rate 2000 g/ha",8
same,"Plant response rating, Barnyardgrass","barnyardgrass; Postemergence, Rate 1000 g/ha",6
same,"Plant response rating, Barnyardgrass","barnyardgrass; Pre-emergence, Rate 2000 g/ha",9
same,"Plant response rating, Morningglory","morningglory; Postemergence, Rate 1000 g/ha",0
same,"Plant response rating, Morningglory","morningglory; Pre-emergence, Rate 2000 g/ha",0
